Reference: ChEMBL document CHEMBL4385656, “Ciprofloxacin-1,2,3-triazole-isatin hybrids tethered via amide: Design, synthesis, and in vitro anti-mycobacterial activity evaluation” (Bioorg Med Chem Lett, 2019)
In brackets after ≈: the same amount, converted by molar mass.

Experiments:
[1] = test system: Mycobacterium tuberculosis; test: Anti-mycobacterial activity against Mycobacterium tuberculosis H37Rv; format: functional
[2] = Cytotoxicity in African green monkey Vero cells; format: cell-based; conditions: chlorocebus sabaeus
[3] = Selectivity index, ratio of CC50 for cytotoxicity in African green monkey Vero cells to MIC for anti-mycobacterial activity against Mycobacterium tuberculosis H37Rv; format: toxicity, cell-based; conditions: read-out: Selectivity Index
[4] = test system: Mycobacterium tuberculosis; test: Potency index, ratio of MIC for ciprofloxacin to MIC for test compound for anti-mycobacterial activity against Mycobacterium tuberculosis H37Rv; format: functional

Question: Which results are given for `CCO/N=C1/C(=O)N(Cc2cn(CC(=O)N3CCN(c4cc5c(cc4F)c(=O)c(C(=O)O)cn5C4CC4)CC3)nn2)c2ccc(F)cc21`?
Answer: MIC [1]: 16 µg/mL (≈ 24.2 µM); CC50 [2]: 8 µg/mL (≈ 12.1 µM); selectivity ratio [3]: 0.5

Question: With `CO[C@H]1/C=C/O[C@@]2(C)Oc3c(C)c(O)c4c(O)c(c(/C=N/N5CCN(C)CC5)c(O)c4c3C2=O)NC(=O)/C(C)=C\C=C\[C@H](C)[C@H](O)[C@@H](C)[C@@H](O)[C@@H](C)[C@H](OC(C)=O)[C@@H]1C` [RIFAMPIN] as the compound, how does the MIC [1] read?
Answer: The MIC was 0.25 µg/mL (≈ 0.304 µM).

Question: What about the CC50 [2] of the same compound?
Answer: Its CC50 is 128 µg/mL (≈ 156 µM).

Question: What about the selectivity ratio [3] of the same compound?
Answer: Its selectivity ratio is 512.

Question: With `Cc1ccc2c(c1)C(=O)C(=O)N2Cc1cn(CC(=O)N2CCN(c3cc4c(cc3F)c(=O)c(C(=O)O)cn4C3CC3)CC2)nn1` as the compound, how does the MIC [1] read?
Answer: Its MIC is 1 µg/mL (≈ 1.63 µM).

Question: And the CC50 [2]?
Answer: The CC50 was 16 µg/mL (≈ 26.1 µM).

Question: And the selectivity ratio [3]?
Answer: The selectivity ratio was 16.

Question: For `CCO/N=C1/C(=O)N(Cc2cn(CC(=O)N3CCN(c4cc5c(cc4F)c(=O)c(C(=O)O)cn5C4CC4)CC3)nn2)c2c(F)cccc21`, which MIC [1] is on record?
Answer: Its MIC is 32 µg/mL (≈ 48.4 µM).

Question: And the CC50 [2]?
Answer: Its CC50 is 16 µg/mL (≈ 24.2 µM).

Question: What about the selectivity ratio [3] of the same compound?
Answer: The selectivity ratio was 0.5.

Question: Which MIC [1] does the source give for `CO/N=C1/C(=O)N(Cc2cn(CC(=O)N3CCN(c4cc5c(cc4F)c(=O)c(C(=O)O)cn5C4CC4)CC3)nn2)c2ccc(F)cc21` here?
Answer: Its MIC is 8 µg/mL (≈ 12.4 µM).

Question: And the CC50 [2]?
Answer: The CC50 was 64 µg/mL (≈ 99 µM).

Question: What about the selectivity ratio [3] of the same compound?
Answer: The selectivity ratio was 8.

Question: Which MIC [1] does the source give for `O=C1C(=O)N(Cc2cn(CC(=O)N3CCN(c4cc5c(cc4F)c(=O)c(C(=O)O)cn5C4CC4)CC3)nn2)c2ccc(F)cc21` here?
Answer: The MIC was 1 µg/mL (≈ 1.62 µM).

Question: And the CC50 [2]?
Answer: Its CC50 is 32 µg/mL (≈ 51.8 µM).

Question: What about the selectivity ratio [3] of the same compound?
Answer: The selectivity ratio was 32.

Question: Which Ratio [4] does the source give for `O=C1C(=O)N(Cc2cn(CC(=O)N3CCN(c4cc5c(cc4F)c(=O)c(C(=O)O)cn5C4CC4)CC3)nn2)c2ccccc21` here?
Answer: The Ratio was 2.

Question: And the MIC [1]?
Answer: Its MIC is 0.5 µg/mL (≈ 0.834 µM).

Question: And the CC50 [2]?
Answer: The CC50 was 16 µg/mL (≈ 26.7 µM).

Question: And the selectivity ratio [3]?
Answer: Its selectivity ratio is 32.

Question: Which MIC [1] does the source give for `CCO/N=C1/C(=O)N(Cc2cn(CC(=O)N3CCN(c4cc5c(cc4F)c(=O)c(C(=O)O)cn5C4CC4)CC3)nn2)c2ccc(C)cc21` here?
Answer: The MIC was 32 µg/mL (≈ 48.7 µM).

Question: And the CC50 [2]?
Answer: The CC50 was 32 µg/mL (≈ 48.7 µM).

Question: What about the selectivity ratio [3] of the same compound?
Answer: The selectivity ratio was 1.

Question: What does the source list for `CO/N=C1/C(=O)N(Cc2cn(CC(=O)N3CCN(c4cc5c(cc4F)c(=O)c(C(=O)O)cn5C4CC4)CC3)nn2)c2c(F)cccc21`?
Answer: MIC [1]: 32 µg/mL (≈ 49.5 µM); CC50 [2]: 32 µg/mL (≈ 49.5 µM); selectivity ratio [3]: 1

Question: What does the source list for `CO/N=C1/C(=O)N(Cc2cn(CC(=O)N3CCN(c4cc5c(cc4F)c(=O)c(C(=O)O)cn5C4CC4)CC3)nn2)c2ccccc21`?
Answer: MIC [1]: 8 µg/mL (≈ 12.7 µM); CC50 [2]: 128 µg/mL (≈ 204 µM); selectivity ratio [3]: 16

Question: For `O=C(O)c1cn(C2CC2)c2cc(N3CCNCC3)c(F)cc2c1=O` [CIPROFLOXACIN], which MIC [1] is on record?
Answer: The MIC was 1 µg/mL (≈ 3.02 µM).

Question: And the selectivity ratio [3]?
Answer: The selectivity ratio was 128.

Question: With `CCO/N=C1/C(=O)N(Cc2cn(CC(=O)N3CCN(c4cc5c(cc4F)c(=O)c(C(=O)O)cn5C4CC4)CC3)nn2)c2ccccc21` as the compound, how does the MIC [1] read?
Answer: Its MIC is 32 µg/mL (≈ 49.8 µM).

Question: And the CC50 [2]?
Answer: The CC50 was 64 µg/mL (≈ 99.6 µM).

Question: And the selectivity ratio [3]?
Answer: Its selectivity ratio is 2.

Question: For `NNC(=O)c1ccncc1` [ISONIAZID], which MIC [1] is on record?
Answer: Its MIC is 0.12 µg/mL (≈ 0.875 µM).

Question: What about the CC50 [2] of the same compound?
Answer: Its CC50 is 64 µg/mL (≈ 467 µM).

Question: And the selectivity ratio [3]?
Answer: Its selectivity ratio is 512.

Question: Which MIC [1] does the source give for `O=C1C(=O)N(Cc2cn(CC(=O)N3CCN(c4cc5c(cc4F)c(=O)c(C(=O)O)cn5C4CC4)CC3)nn2)c2c(F)cccc21` here?
Answer: Its MIC is 4 µg/mL (≈ 6.48 µM).

Question: And the CC50 [2]?
Answer: The CC50 was 8 µg/mL (≈ 13 µM).

Question: And the selectivity ratio [3]?
Answer: The selectivity ratio was 2.

Question: Which results are given for `CO/N=C1/C(=O)N(Cc2cn(CC(=O)N3CCN(c4cc5c(cc4F)c(=O)c(C(=O)O)cn5C4CC4)CC3)nn2)c2ccc(C)cc21`?
Answer: MIC [1]: 32 µg/mL (≈ 49.8 µM); CC50 [2]: 8 µg/mL (≈ 12.4 µM); selectivity ratio [3]: 0.25
